Measured values taken from patent publication US6534530B1, “Antipicornaviral compounds and compositions, their pharmaceutical uses, and materials for their synthesis” (Agouron Pharmaceuticals, Inc., priority 1999, dated 2003).
Where two headings read alike, the source gives them in different places.

Tests used:
[1] = target: T1, recombinant rhinovirus 3C protease, serotype 14 (Human rhinovirus 14, UniProt P03303); assay: Inhibition of rhinovirus 3C protease (FRET assay), serotype 14; type: biochemical
T1 construct: Recombinant rhinovirus 3C proteases; made in house
Method: (§1) Stock solutions (50 mM, in DMSO) of various compounds were prepared; dilutions were in the same solvent. Recombinant rhinovirus 3C proteases (see Birch et al., “Purification of recombinant human rhinovirus 14 3C protease expressed in Escherichia coli,” Protein Expr. Pur. (1995), vol. 6(5), 609-618) from serotypes 14, 16, and 2 were prepared by the following standard chromatographic procedures: (1) ion exchange using Q Sepharose Fast Flow from Pharmacia; (2) affinity chromatography using Affi-Gel Blue from Biorad; and (3) sizing using Sephadex G-100 from Pharmacia. Each assay sample contained 2% DMSO, 50 mM tris pH 7.6, 1 mM EDTA, a test compound at the indicated concentration, approximately 1 μM substrate, and 50-100 nM protease. The kobs/I values were obtained from reactions initiated by addition of enzyme rather than substrate. RVP activity was measured in the fluorescence resonance energy transfer assay. The substrate was (N-terminal) DABCYL-([…]-EDANS. In the uncleaved peptide, the EDANS fluorescence was quenched by the proximal DABCYL moiety. When the peptide was cleaved, the quenching was relieved, and activity was measured as an increase in fluorescence signal. The tabulated data in the column designated kobs/[I] were measured from progress curves in enzyme start experiments.

[2] = in vitro; conditions: human
[3] = test system: HRV-14; assay: Antirhinoviral H1-HeLa cell culture assay (XTT), HRV-14; type: cell-based, human rhinovirus
[4] = target: T2, rhinovirus 3C protease, HRV-89 (Human rhinovirus A serotype 89, UniProt P07210); assay: Inhibition of rhinovirus 3C protease (FRET assay), serotype 89; type: biochemical, human rhinovirus 89; conditions: HRV-89 3C protease
T2 construct: Recombinant rhinovirus 3C proteases

[5] = test system: HRV-16; assay: Antirhinoviral H1-HeLa cell culture assay (XTT), HRV-16; type: cell-based; conditions: Human rhinovirus sp., HRV16, HRV-16, H1-HeLa cells
Excerpt: (1989), vol. 81, 577-586.

[6] = target: T3, recombinant rhinovirus 3C protease, serotype 16 (Human rhinovirus 16, UniProt Q82122); assay: Inhibition of rhinovirus 3C protease (FRET assay), serotype 16; type: biochemical; conditions: HRV-16 3C protease
T3 construct: Recombinant rhinovirus 3C proteases; made in house
Method: as §1

[7] = target: T4, recombinant rhinovirus 3C protease, serotype 2 (Human rhinovirus 2, UniProt P04936); assay: Inhibition of rhinovirus 3C protease (FRET assay), serotype 2; type: biochemical; conditions: HRV-2 3C protease
T4 construct: Recombinant rhinovirus 3C proteases; made in house
Method: as §1

[8] = test system: H1-HeLa cells; assay: Cytotoxicity in mock-infected H1-HeLa cells (antirhinoviral assay, XTT); conditions: HRV-14
[9] = Rhinovirus B, HRV14, HRV-14, H1-HeLa cells

T4 sequence (P04936 1508-1690): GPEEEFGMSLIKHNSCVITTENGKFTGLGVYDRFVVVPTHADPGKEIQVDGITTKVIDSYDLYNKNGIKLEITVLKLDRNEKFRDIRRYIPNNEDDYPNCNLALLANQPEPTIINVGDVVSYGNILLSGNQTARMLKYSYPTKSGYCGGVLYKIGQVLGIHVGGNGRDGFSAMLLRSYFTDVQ
T1 sequence (P03303 1538-1719): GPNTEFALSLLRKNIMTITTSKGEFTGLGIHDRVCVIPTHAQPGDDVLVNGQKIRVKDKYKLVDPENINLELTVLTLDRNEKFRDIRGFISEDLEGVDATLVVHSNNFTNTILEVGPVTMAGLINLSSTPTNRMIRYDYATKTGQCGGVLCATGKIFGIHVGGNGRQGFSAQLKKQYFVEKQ
T3 sequence (Q82122 1511-1693): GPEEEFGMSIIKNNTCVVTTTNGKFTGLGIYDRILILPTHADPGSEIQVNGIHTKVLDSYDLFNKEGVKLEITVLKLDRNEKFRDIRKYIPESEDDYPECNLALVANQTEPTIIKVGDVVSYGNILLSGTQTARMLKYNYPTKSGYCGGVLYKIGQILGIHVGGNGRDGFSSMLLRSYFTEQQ
T2 sequence (P07210 1522-1704): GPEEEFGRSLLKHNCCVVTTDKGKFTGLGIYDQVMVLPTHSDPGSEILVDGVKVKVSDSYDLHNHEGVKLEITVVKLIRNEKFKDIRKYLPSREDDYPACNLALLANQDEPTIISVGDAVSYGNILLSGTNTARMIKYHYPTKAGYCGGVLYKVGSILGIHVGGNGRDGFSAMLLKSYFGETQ

For `CC(C)C[C@H](NC(=O)OCc1ccccc1)C(=O)N[C@@H](Cc1ccccc1)C(=O)N[C@@H](CNC(=O)OC(C)(C)C)C(=O)c1nc2ccccc2s1` [Compound 6, Cbz-L-Leu-L-Phe-L-(N-Boc-amino-Ala)-2-Benzthiazole], the Ki [1] was 4.8 µM.
With `CNC(=O)C(=O)[C@H](CNC(C)=O)NC(=O)[C@H](Cc1ccccc1)NC(=O)[C@H](CC(C)C)NC(=O)OCc1ccccc1` [Compound 10, Cbz-L-Leu-L-Phe-L-(N-Ac-amino-Ala)-C(O)NHCH3] the CC50 at 2 days ([2]; mock-infected H1-HeLa cells) was greater than 320 µM, the Ki [1] was 20 µM and the EC50 [3, 9] was 251 µM.
Compound `CC(=O)NC[C@@H](NC(=O)[C@H](Cc1ccccc1)NC(=O)[C@H](CC(C)C)NC(=O)OCc1ccccc1)C(=O)C(=O)N1CCCCC1` [Compound 12, Cbz-L-Leu-L-Phe-D-(N-Ac-amino-Ala)-C(O)-Piperidine] has a Ki [1] of 10.7 µM and an EC50 [3, 9] of 39 µM.
Compound `CC(C)C[C@H](NC(=O)OCc1ccccc1)C(=O)N[C@@H](Cc1ccccc1)C(=O)N[C@@H](CCC(N)=O)C(=O)c1nc2ccccc2s1` [Compound 20, Cbz-L-Leu-L-Phe-L-Gln-2-Benzthiazole] has a CC50 at 2 days ([2]; mock-infected H1-HeLa cells) greater than 100 µM, a Ki [1] of 3.5 µM and an EC50 [3, 9] of 17.4 µM.
`CC(=O)NC[C@H](NC(=O)[C@H](Cc1ccccc1)NC(=O)[C@H](CC(C)C)NC(=O)OCc1ccccc1)C(=O)c1nc2ccccc2s1` [Compound 9, Cbz-L-Leu-L-Phe-L-(N-Ac-amino-Ala)-2-Benzthiazole] gave a Ki [4] of 0.48 µM, an EC50 [5] greater than 25 µM and a Ki [6] of 0.31 µM. The CC50 at 2 days ([2]; mock-infected H1-HeLa cells) was 25 µM, the Ki [1] was 1.7 µM and the Ki [7] was 0.9 µM. For the same compound, the EC50 [3, 9] was greater than 25 µM.
With `CC(C)C[C@H](NC(=O)OCc1ccccc1)C(=O)N[C@@H](Cc1ccccc1)C(=O)N[C@@H](C[C@@H]1CCNC1=O)C(=O)c1ccccc1` [Compound 26, Cbz-L-Leu-L-Phe-L-[(S)-Pyrrol-Ala]-Ph] the CC50 at 2 days ([2]; mock-infected H1-HeLa cells) was greater than 10 µM, the Ki [1] was 3.22 µM and the EC50 [3, 9] was greater than 10 µM.
`Cc1cc(CCCOc2c(C)cc(-c3noc(C(F)(F)F)n3)cc2C)on1` [Pleconaril, reference compound] gave a CC50 at 2 days ([2]; mock-infected H1-HeLa cells) greater than 10 µM and an EC50 [3, 9] of 0.01 µM.
`Cc1cc(CCCCCCCOc2ccc(C3=NCCO3)cc2)on1` [WIN51711, reference compound] showed an EC50 ([3]; HRV-14, H1-HeLa cells) of 0.78 µM and a CC50 [8] greater than 60 µM.
`CC(=O)NC[C@H](NC(=O)[C@H](Cc1ccccc1)NC(=O)[C@H](CC(C)C)NC(=O)OCc1ccccc1)C(=O)C(=O)N1CCCCC1` [Compound 11, Cbz-L-Leu-L-Phe-L-(N-Ac-amino-Ala)-C(O)-Piperidine] gave a Ki [1] greater than 110 µM.
For `C=CC(=O)[C@H](CNC(C)=O)NC(=O)[C@H](Cc1ccccc1)NC(=O)[C@H](CC(C)C)NC(=O)OCc1ccccc1` [Compound 15, Cbz-L-Leu-L-Phe-L-(N-Ac-amino-Ala)-CH=CH2], the CC50 at 2 days ([2]; mock-infected H1-HeLa cells) was greater than 100 µM, the Ki [1] was 0.098 µM and the EC50 [3, 9] was greater than 100 µM.
Compound `COCC(=O)[C@H](CNC(C)=O)NC(=O)[C@H](Cc1ccccc1)NC(=O)[C@H](CC(C)C)NC(=O)OCc1ccccc1` [Compound 19, Cbz-L-Leu-L-Phe-L-(N-Ac-amino-Ala)-CH2OCH3] has a Ki [4] of 20.6 µM, a Ki [6] of 27 µM and a Ki [1] of 27 µM. The Ki [7] was 12.9 µM.
With `CC(=O)NC[C@H](NC(=O)[C@H](Cc1ccccc1)NC(=O)[C@H](CC(C)C)NC(=O)OCc1ccccc1)C(=O)COC(=O)c1c(C)cc(C)cc1C` [Compound 3, Cbz-L-Leu-L-Phe-L-(N-Ac-amino-Ala)-CH2OC(O)-(2,4,6-trimethylphenyl)] the CC50 at 2 days ([2]; mock-infected H1-HeLa cells) was 25 µM, the “kobs/[I]” value ([1]; HRV-14 3C protease, progress curves in enzyme start experiments) was “slow” and the EC50 [3, 9] was greater than 25 µM.
`CC(C)C[C@H](NC(=O)OCc1ccccc1)C(=O)N[C@@H](Cc1ccccc1)C(=O)N[C@@H](C[C@@H]1CCNC1=O)C(=O)c1nc2ccccc2s1` [Compound 21, Cbz-L-Leu-L-Phe-L-[(S)-Pyrrol-Ala]-2-Benzthiazole] gave a melting point of 108 to 111 °C, a CC50 at 2 days ([2]; mock-infected H1-HeLa cells) greater than 320 µM and a Ki [1] of 0.065 µM. The EC50 [3, 9] was 3.2 µM.
With `Cc1cc(CCCCCOc2c(Cl)cc(C3=NCCO3)cc2Cl)on1` [WIN54954, reference compound] the EC50 ([3]; HRV-14, H1-HeLa cells) was 2.13 µM and the CC50 [8] was greater than 63 µM.
`Cc1cc(CCCCCCCOc2ccc(C3=N[C@@H](C)CO3)cc2)on1` [WIN52084, reference compound] gave an EC50 ([3]; HRV-14, H1-HeLa cells) of 0.07 µM and a CC50 [8] greater than 10 µM.
With `CCOC(=O)c1ccc(OCCC2CCN(c3ccc(C)nn3)CC2)cc1` [Pirodavir, reference compound] the CC50 at 2 days [2] was greater than 10 µM and the EC50 [3, 9] was 0.03 µM.
`C#CC(=O)[C@H](CNC(C)=O)NC(=O)[C@H](Cc1ccccc1)NC(=O)[C@H](CNC(C)=O)NC(=O)OCc1ccccc1` [Compound 16] gave a CC50 at 2 days ([2]; mock-infected H1-HeLa cells) greater than 100 µM, a Ki [1] of 0.035 µM and an EC50 [3, 9] greater than 100 µM.
`CC(C)C[C@H](NC(=O)OCc1ccccc1)C(=O)N[C@@H](Cc1ccccc1)C(=O)N[C@@H](C[C@@H]1CCNC1=O)C(=O)c1ccccn1` [Compound 23, Cbz-L-Leu-L-Phe-L-[(S)-Pyrrol-Ala]-2-Pyridine] gave a CC50 at 2 days ([2]; mock-infected H1-HeLa cells) of 200 µM, a Ki [1] of 0.17 µM and an EC50 [3, 9] of 4 µM.
In the case of `CSCC(=O)[C@H](CCC(N)=O)NC(=O)[C@H](Cc1ccccc1)NC(=O)[C@H](CC(C)C)NC(=O)OCc1ccccc1` [Compound 2, Cbz-L-Leu-L-Phe-L-(Gln)-CH2SCH3], the Ki [1] is reported as 50 µM.
For `CC(C)C[C@H](NC(=O)OCc1ccccc1)C(=O)N[C@@H](Cc1ccccc1)C(=O)N[C@@H](C[C@@H]1CCNC1=O)C(=O)c1nccs1` [Compound 22, Cbz-L-Leu-L-Phe-L-[(S)-Pyrrol-Ala]-2-Thiazole], the melting point was 83 to 85 °C, the CC50 at 2 days ([2]; mock-infected H1-HeLa cells) was 240 µM and the Ki [1] was 0.7 µM. It also gave an EC50 [3, 9] of 7.9 µM.
Compound `CC(=O)NC[C@H](NC(=O)[C@H](Cc1ccccc1)NC(=O)[C@H](CC(C)C)NC(=O)OCc1ccccc1)C(=O)c1nccs1` [Compound 13, Cbz-L-Leu-L-Phe-L-(N-Ac-amino-Ala)-2-Thiazole] has a Ki [6] of 4 µM, a CC50 at 2 days ([2]; mock-infected H1-HeLa cells) of 56 µM and a Ki [1] of 24 µM. The Ki [7] was 13.3 µM and the EC50 [3, 9] was greater than 56 µM.
Compound `CC(C)C[C@H](NC(=O)OCc1ccccc1)C(=O)N[C@@H](Cc1ccccc1)C(=O)N[C@@H](C[C@@H]1CCNC1=O)C(=O)c1cc2ccccc2s1` [Compound 25, Cbz-L-Leu-L-Phe-L-[(S)-Pyrrol-Ala]-2-Benzothiophene] has a CC50 at 2 days ([2]; mock-infected H1-HeLa cells) greater than 10 µM, a Ki [1] of 4.7 µM and an EC50 [3, 9] greater than 10 µM.
In the case of `CC(C)C[C@H](NC(=O)OCc1ccccc1)C(=O)N[C@@H](Cc1ccccc1)C(=O)N[C@@H](CNC(=O)OC(C)(C)C)C(=O)c1ccccn1` [Compound 7, Cbz-L-Leu-L-Phe-L-(N-Boc-amino-Ala)-2-Pyridine], the Ki [1] is reported as 71 µM.
`CSCC(=O)[C@H](CCC(=O)NC(c1ccccc1)(c1ccccc1)c1ccccc1)NC(=O)[C@H](Cc1ccccc1)NC(=O)[C@H](CC(C)C)NC(=O)OCc1ccccc1` [Compound 1, Cbz-L-Leu-L-Phe-L-(Tr-Gln)-CH2SCH3] showed a Ki [1] of 9 µM.
`CC(=O)NC[C@H](NC(=O)[C@H](Cc1ccccc1)NC(=O)[C@H](CC(C)C)NC(=O)OCc1ccccc1)C(=O)COCCc1ccccc1` [Compound 18, Cbz-L-Leu-L-Phe-L-(N-Ac-amino-Ala)-CH2OCH2CH2Ph] gave a Ki [4] of 14 µM, a Ki [6] of 6.7 µM and a CC50 at 2 days ([2]; mock-infected H1-HeLa cells) of 20 µM. The Ki [1] was 9.1 µM, the Ki [7] was 11 µM and the EC50 [3, 9] was greater than 20 µM.
In the case of `CC(C)C[C@H](NC(=O)OCc1ccccc1)C(=O)N[C@@H](Cc1ccccc1)C(=O)N[C@@H](CCC(N)=O)C(=O)COC(=O)c1c(Cl)cccc1Cl` [Compound 27, Cbz-L-Leu-L-Phe-L-Gln-CH2OC(O)-(2,6-dichlorophenyl)], the kinact/KI ([1]; pH 7.6, HRV-14 3C protease, progress curves in enzyme start experiments, read-out: kobs/[I]) is reported as 2500 M⁻¹ s⁻¹.
Work on `CC(=O)[C@H](C[C@@H]1CCNC1=O)NC(=O)[C@H](Cc1ccccc1)NC(=O)[C@H](CC(C)C)NC(=O)OCc1ccccc1` [Compound 24, Cbz-L-Leu-L-Phe-L-[(S)-Pyrrol-Ala]-CH3] yielded a CC50 at 2 days ([2]; mock-infected H1-HeLa cells) greater than 10 µM, a Ki [1] of 0.65 µM and an EC50 [3, 9] greater than 10 µM.
`CC(=O)NC[C@H](NC(=O)[C@H](Cc1ccccc1)NC(=O)[C@H](CC(C)C)NC(=O)OCc1ccccc1)C(C)=O` [Compound 5, Cbz-L-Leu-L-Phe-L-(N-Ac-amino-Ala)-CH3] gave a Ki [1] of 138 µM.
With `CC(=O)NC[C@H](NC(=O)[C@H](Cc1ccccc1)NC(=O)[C@H](CC(C)C)NC(=O)OCc1ccccc1)C(=O)c1ccccn1` [Compound 8, Cbz-L-Leu-L-Phe-L-(N-Ac-amino-Ala)-2-Pyridine] the Ki [1] was 80 µM.
With `COCC#CC(=O)[C@H](CNC(C)=O)NC(=O)[C@H](Cc1ccccc1)NC(=O)[C@H](CC(C)C)NC(=O)OCc1ccccc1` [Compound 17, Cbz-L-Leu-L-Phe-L-(N-Ac-amino-AIa)-C≡CCH2OCH3] the CC50 at 2 days ([2]; mock-infected H1-HeLa cells) was greater than 100 µM, the Ki [1] was 0.075 µM and the EC50 [3, 9] was greater than 100 µM.
For “Cbz-L-Leu-L-Phe-L-(N-Boc-amino-Ala)-CH3 [Compound 4]”, the Ki ([1]; HRV-14 3C protease, read-out: Ki) was 16.3 µM.
